Patent US4278686A, “Carbapenum derivatives, a process for their preparation and their use in pharmaceutical compositions and intermediates” (Beecham Group Limited, priority 1978, dated 1981)

Assays:
Assay type in all cases: cell-based
[1] = tested on: Shigella sonnei MB 11967; assay: standard MIC test, Shigella sonnei MB 11967 (DST agar+5% horse blood); settings: MB11967
[2] = tested on: Citrobacter freundii E8; assay: standard MIC test, Citrobacter freundii E8 (DST agar+5% horse blood)
[3] = tested on: Klebsiella aerogenes A; assay: standard MIC test, Klebsiella aerogenes A (DST agar+5% horse blood)
[4] = tested on: Staph. aureus 1517; assay: standard MIC test, Staph. aureus 1517 (DST agar+5% horse blood); settings: Staphylococcus aureus
[5] = tested on: Staph. aureus Russell; assay: standard MIC test, Staph. aureus Russell (DST agar+5% horse blood); settings: Staphylococcus aureus
[6] = tested on: E. coli 0111; assay: standard MIC test, E. coli 0111 (DST agar+5% horse blood); settings: Escherichia coli
[7] = tested on: Proteus rettgeri WM 16; assay: standard MIC test, Proteus rettgeri WM 16 (DST agar+5% horse blood); settings: Providencia rettgeri, WM16
[8] = tested on: Proteus morganii I 580; assay: standard MIC test, Proteus morganii I 580 (DST agar+5% horse blood); settings: Morganella morganii, I580
[9] = tested on: Strep. faecalis I; assay: standard MIC test, Strep. faecalis I (DST agar+5% horse blood); settings: Enterococcus faecalis
[10] = tested on: Proteus vulgaris WO 91; assay: standard MIC test, Proteus vulgaris WO 91 (DST agar+5% horse blood); settings: WO91
[11] = tested on: Staph. aureus Oxford; assay: standard MIC test, Staph. aureus Oxford (DST agar+5% horse blood); settings: Staphylococcus aureus
[12] = tested on: Proteus mirabilis 0977; assay: standard MIC test, Proteus mirabilis 0977 (DST agar+5% horse blood)
[13] = tested on: Ps aeruginosa A; assay: standard MIC test, Ps aeruginosa A (DST agar+5% horse blood)
[14] = tested on: Enterobacter cloacae M 1; assay: standard MIC test, Enterobacter cloacae M 1 (DST agar+5% horse blood); settings: M1
[15] = tested on: Salmonella typhimurium CT10; assay: standard MIC test, Salmonella typhimurium CT10 (DST agar+5% horse blood); settings: Salmonella enterica
[16] = tested on: Serratia marcescens US20; assay: standard MIC test, Serratia marcescens US20 (DST agar+5% horse blood)

Question: For CCSC(C)[C@H]1C(=O)N2C(C(=O)[O-])=C(S/C=C/NC(C)=O)C[C@H]12.[Na+] (stereo partly drawn) [e52, Sodium (5R,6R)-3-[(E)-2-acetamidoethenylthio]-6-(-1-ethylthio-ethyl)-7-oxo-1-azabicyclo[3.2.0]hept2-ene-2-carboxylate], which MIC [1] is on record?
Answer: 3.1 µg/mL

Question: What about the MIC [2] of the same molecule?
Answer: 3.1 µg/mL

Question: What about the MIC [3] of the same molecule?
Answer: 0.8 µg/mL

Question: What about the MIC [4] of the same molecule?
Answer: 6.25 µg/mL

Question: And the MIC [5]?
Answer: 0.8 µg/mL

Question: What about the MIC [6] of the same molecule?
Answer: 3.1 µg/mL

Question: And the MIC [7]?
Answer: 6.25 µg/mL

Question: And the MIC [8]?
Answer: 12.5 µg/mL

Question: What about the MIC [9] of the same molecule?
Answer: 50 µg/mL

Question: And the MIC [10]?
Answer: 6.25 µg/mL

Question: And the MIC [11]?
Answer: 0.8 µg/mL

Question: And the MIC [12]?
Answer: 12.5 µg/mL

Question: What about the MIC [13] of the same molecule?
Answer: 100 µg/mL

Question: What about the MIC [14] of the same molecule?
Answer: 12.5 µg/mL

Question: What about the MIC [15] of the same molecule?
Answer: 6.25 µg/mL

Question: What about the MIC [16] of the same molecule?
Answer: 6.25 µg/mL
